Publication PMC9866367 (Journal of medicinal chemistry, 2022)

What was measured:
[1] = target: T1, purified human sAC protein (Homo sapiens, UniProt Q96PN6); assay: In vitro cyclase activity assay; format: biochemical
T1 sequence (Q96PN6 1-469): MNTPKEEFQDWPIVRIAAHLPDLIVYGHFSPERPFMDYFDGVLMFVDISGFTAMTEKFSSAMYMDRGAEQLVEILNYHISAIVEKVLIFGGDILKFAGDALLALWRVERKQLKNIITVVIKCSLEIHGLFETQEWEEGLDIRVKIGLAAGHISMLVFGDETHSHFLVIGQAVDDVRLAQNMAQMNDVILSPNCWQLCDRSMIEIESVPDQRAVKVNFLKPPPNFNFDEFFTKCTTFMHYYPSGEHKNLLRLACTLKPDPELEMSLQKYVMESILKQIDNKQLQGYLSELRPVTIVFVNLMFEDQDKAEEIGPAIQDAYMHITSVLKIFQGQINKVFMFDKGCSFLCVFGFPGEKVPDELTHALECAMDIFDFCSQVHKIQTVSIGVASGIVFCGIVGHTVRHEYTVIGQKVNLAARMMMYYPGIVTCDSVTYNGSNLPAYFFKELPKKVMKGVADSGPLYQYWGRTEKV

[2] = target: T2, recombinant purified His-tagged sACt protein (Homo sapiens, UniProt Q96PN6); assay: Binding kinetics via surface plasmon resonance; details: read-out: SPR Residence Time
T2 sequence (Q96PN6 1-469 limits assumed): T1 sequence (Q96PN6 1-469)

Cytotoxicity = format: cell-based
panel of 322 kinases = assay: Kinase panel; format: biochemical; details: Table S2
GSH = format: in vitro ADME; details: 5 μM compound, 5 mM GSH, up to 2 h
[3] = In vivo pharmacokinetic analysis in mice; parameters: species or system male CD-1 mice
[4] = 50 mg/kg IP, male mice, 1 h post-dosing; cited from earlier work
[5] = tested on: 46 other relevant drug targets such as GPCRs, ion channels, and nuclear receptors; assay: Eurofins safety panel; details: Table S3
[6] = male, CD-1, mouse, plasma, iv, 2 mg/kg

With `CN(C)C(=O)c1ccccc1Cc1cn(C)nc1-c1cc(Cl)nc(N)n1` [Compound 14] the “biochemical activity in words” value [1] was “almost inactive”.
Compound `Nc1nc(Cl)cc(-c2nn(C(F)F)cc2Cc2ccccc2OCC(=O)N2CCOCC2)n1` [Compound 24] has a residence time [2] of 8.07 min.
For `Nc1nc(Cl)cc(-c2nn(C(F)F)cc2Cc2ccccc2OCCN2CCOC[C@H]2CO)n1` [Compound 33, [(3R)-4-[2-[2-[[3-(2-Amino-6-chloro-pyrimidin-4-yl)-1-(difluoromethyl)pyrazol-4-yl]methyl]phenoxy]ethyl]morpholin-3-yl]methanol], the cytotoxicity (Cytotoxicity) was >20 µM, the cytotoxicity in words (Cytotoxicity; at 20 μM) was “no cytotoxicity” and the “activity against a panel of 322 kinases” value (panel of 322 kinases) was “did not show appreciable activity”. For the same compound, the glutathione reactivity (GSH; listed as TDI-11861) was “no evidence of adduct formation”, the glutathione reactivity (GSH; listed as TDI-11861 (33)) was “low propensity at 5 μM” and the “unbound plasma exposure over cellular IC50 ([…])” value ([3]; 50 mg/kg PO, CD-1 mice, out to 4 h) was ~ 10 fold. For the same compound, the AUC(0-t) [3, 6] was 780 ± 110 µM·h, the clearance [3, 6] was 94 ± 12 mL/min/kg and the AUC(0-t) ([3]; male, CD-1, mouse, plasma, po, 10 mg/kg) was 410 ± 57 µM·h. The AUC(0-t) ([3]; male, CD-1, mouse, plasma, po, 50 mg/kg) was 5460 ± 1500 µM·h, the systemic level [4] was 7.04 µM and the “activity against 46 other drug targets in Eurofins safety panel” value [5] was “did not show appreciable activity”.
